Measurements from patent US10525044B2, “Treatment for chemotherapy-induced peripheral neuropathy” (priority 2013, dated 2020).
“Also recorded” adds a separate entry of the source.

What was measured:
[1] = tested on: mixed cortical and striatal neurons; assay: LDH assay (cell membrane integrity) in neuronal cell culture; format: cell-based; conditions: MTX 100 μM, 5-FU 25 μM, CDDP 3.5 μM; for LDH increase in culture supernatant (cell membrane leakage): neurons in 25% AO; for LDH increase in culture supernatant (cell membrane leakage) / morphological changes, LDH release, or MTS reduction: 3 days; for morphological changes, LDH release, or MTS reduction: neurons in 100% or 50% AOs, data not shown; for increase in LDH reading: neurons, FIG. 2(b)
Description: (§1) Neuronal Cell Culture. Mixed cortical and striatal neurons fromembryonic day 17 male Sprague-Dawley rats (tissue obtained from NIH) were seeded into poly-D-lysine coated 96-well plates at density of 50,000 cells/well and initially cultured at 37° C., 5% CO2, in neurobasal medium (NB) with B27 supplement (Invitrogen) containing full strength of AOs to obtain highly enriched (95%) neurons. Since AOs, including vitamin E, vitamin E acetate, superoxide dismutase (SOD), catalase (CAT), and GSH, are additives to culture medium, reduction of AO concentration in culture medium provides an approach to determine the level of OS involvement in a neurotoxic process. In our study, the culture medium was replaced at a 50% ratio with NB plus B27 minus AOs twice at days 7 and 9 to set AO concentrations as 50% and 25%, respectively. At 16 days in vitro (d.i.v.), a fraction of the culture medium was harvested for lactate dehydrogenase (LDH) assay, and then AO concentration was reduced to 12.5% and cultured for a further 5 hours prior to ending the experiment.
(§2) Cell Insults and Treatments. Determination of concentration for each anticancer drug in our experiments was based on its reported concentration in human cerebral spinal fluid (CSF) in chemotherapy, literature report of its neurotoxicity in culture, and our preliminary in vitro experimental data. At 13 d.i.v., the neuronal cell cultures were insulted with 100 μM of MTX (M9929, Sigma), 25 μM of 5-FU (F6627, Sigma), or 3.5 μM of CDDP (sc-200896, Santa Cruz) for 3 days in absence or presence of PAN 811.Cl.H2O. For ROS examination, the neurons were insulted with both 100 μM of MTX and 25 μM of 5-FU by 15 d.i.v. PAN-811.Cl.H2O was added to cultures to final concentrations of 1.25, 2.5, 5, and 10 μM at the same time as addition of the anticancer drugs. For cancer cell lines, the cells were insulted by the second day of cell seeding with the same concentration of MTX, 5-FU, or CDDP as used in neuronal culture in the absence or presence of 10 μM PAN-811.Cl.H2O for another 3 days.
(§3) Quantitative Assays and Morphological Assessment. Cell membrane integrity and mitochondrial function of either neurons or cancer cells were measured with LDH and 3-(4,5-dimethylthiazol-2-yl)-5-(3-carboxymethoxyphenyl)-2-(4-sulfophenyl)-2H-tetrazolium [MTS] analyses, respectively. The latter has been used to quantify cell survival. For the LDH assay, a mixture of a 35 μL aliquot of culture supernatant and 17.5 μL of Mixed Substrate, Enzyme and Dye Solutions (Sigma) was incubated at room temperature (RT) for 30 minutes. For the MTS assay, 10 μL of MTS reagent (Promega) was added to a culture well containing neurons in 50 μL of medium. The preparations were incubated at 37° C. for 2 hours. The preparations for both assays were then spectrophotometrically measured at 490 nm using a 96-well plate reader (Mode 550, Bio-Rad). Neuronal cell death was morphologically determined based on the integrity of the cell soma and continuity of neuronal processes. The change in number of cancer cells was judged directly by cell density. Cells were photographed under an inverted phase contrast microscope (IX 70, Olympus) using 10× or 20× objective.
(§4) Data Analysis. Data were generated from 4-6 replicate wells, expressed as mean±standard deviation (SD), and statistically evaluated at a significance level of 1% with one factor ANOVA or Student's t-test by using software VASSARSTATS (http://vassarstats.net/) followed by the Tukey HSD test. Figure symbols are as follows: #, P<0.05, and ##, P<0.01, compared with control; *, P<0.05, and **, P<0.01, compared with the insulted group; §§, P<0.01, compared with PAN-811 treated group by Student's t-test.

[2] = tested on: mixed cortical and striatal neurons; assay: Morphological assessment of neuronal cell death; format: cell-based, Sprague-Dawley rats; conditions: MTX 100 μM, 5-FU 25 μM, CDDP 3.5 μM; for visible cell damage: neurons in 25% AO, 3 days; for neuronal cell death / loss of neurons (morphology): AO reduced to 12.5% for 5 hours at 16 d.i.v.
Description: as §1, §2, §3

[3] = tested on: human lung cancer cell line H460; assay: Cell density of H460 cells (phase contrast); format: cell-based; conditions: each agent alone, 3 days: MTX 100 μM, 5-FU 25 μM, CDDP 3.5 μM, PAN-811 10 μM
Description: (§5) Cancer Cell Culture. The mouse liver cancer cell line BNLT3 (gift of Dr. Jack Wands, Brown University) and the human lung cancer cell line H460 (ATCC) were seeded into 96-well plates at a density of 4,000 cells/well and cultured at 37° C., 5% CO2, in DMEM (11965, Gibco) supplemented with 10% fetal bovine serum, 20 mM HEPES, 1 mM sodium pyruvate, and […] gentamycin (all reagents came from Gibco).
as §2, §3

[4] = tested on: mouse liver cancer cell line BNLT3; assay: MTS assay in BNLT3 cancer cells; format: cell-based; conditions: each agent alone, 3 days: MTX 100 μM, 5-FU 25 μM, CDDP 3.5 μM, PAN-811 10 μM
Description: as §5, §2, §3, §4

[5] = tested on: human lung cancer cell line H460; assay: LDH assay (membrane integrity) in H460 cancer cells; format: cell-based; conditions: each agent alone, 3 days: MTX 100 μM, 5-FU 25 μM, CDDP 3.5 μM, PAN-811 10 μM
Description: as §5
as §2, with “[…] […]” for “At 13 d.i.v., the neuronal cell cultures were insulted with 100 μM of MTX (M9929, Sigma), 25 μM of 5-FU (F6627, Sigma), or 3.5 μM of CDDP (sc-200896, Santa Cruz) for 3 days in absence or presence of PAN 811.Cl.H2O. For ROS examination, the neurons were insulted with both 100 μM of MTX and 25 μM of 5-FU by 15 d.i.v.”
as §3, §4

[6] = tested on: mixed cortical and striatal neurons; assay: MTS assay (cell viability) in neuronal cell culture; format: cell-based; conditions: MTX 100 μM, 5-FU 25 μM, CDDP 3.5 μM; for reduction of MTS reading / effect on MTS reading (in words): neurons in 12.5% AO; for effect on MTS reading (in words): FIG. 2(c); for change in MTS level: neurons in 25% AO, 3 days, data not shown
Description: as §1, §2, §3, §4

[7] = tested on: mouse liver cancer cell line BNLT3; assay: Cell density of BNLT3 cells (phase contrast); format: cell-based; conditions: each agent alone, 3 days: MTX 100 μM, 5-FU 25 μM, CDDP 3.5 μM, PAN-811 10 μM
Description: as §5, §2, §3

[8] = tested on: human lung cancer cell line H460; assay: MTS assay in H460 cancer cells; format: cell-based; conditions: each agent alone, 3 days: MTX 100 μM, 5-FU 25 μM, CDDP 3.5 μM, PAN-811 10 μM
Description: as §5, §2, §3, §4

[9] = tested on: TRPA1-dependent hypersensitivity; conditions: short-term systemic treatment before the cytotoxic drug (bortezomib or oxaliplatin); cited from earlier work
[10] = tested on: oxaliplatin-induced behavioral alterations; conditions: in vivo; cited from earlier work

SMILES	LDH increase in culture supernatant (cell membrane leakage) [1]	morphological changes, LDH release, or MTS reduction [1]	increase in LDH reading [1]	visible cell damage [2]	neuronal cell death / loss of neurons (morphology) [2]	cell density [3]	reduction of MTS reading [4]	increase in LDH reading in culture supernatant [5]	reduction of MTS reading [6]	effect on MTS reading (in words) [6]	change in MTS level [6]	cell density / cancer cell number [7]	reduction of MTS reading [8]	prevention of hypersensitivity [9]	antineuropathic effect on oxaliplatin-induced behavioral alterations [10]
[NH2][Pt]([NH2])([Cl])[Cl] [CDDP, cisplatin]	significant LDH increase	neither MTX at 100 μM, 5-FU at 25 μM, nor CDDP at 3.5 μM caused morphological changes, LDH release, or MTS reduction	significant increases in LDH reading	no cell damage was visible	extensive neuronal cell death; also recorded: robust loss of neurons	greatly decreased the cell density	44%	71%	66%	significant reduction in MTS readings	no change in MTS level was detectable	caused a decrease in the cell density	22%		
CN(Cc1cnc2nc(N)nc(N)c2n1)c1ccc(C(=O)N[C@@H](CCC(=O)O)C(=O)O)cc1 [MTX, methotrexate]	significant LDH increase	neither MTX at 100 μM, 5-FU at 25 μM, nor CDDP at 3.5 μM caused morphological changes, LDH release, or MTS reduction	significant increases in LDH reading	no cell damage was visible	did not result in significant loss of cell number	robustly decreased the cell density	85%	95%		did not elicit significant MTS reduction; also recorded: did not significantly affect the MTS reading	no change in MTS level was detectable	severely reduced the cancer cell number	67%		
O=C(O)CCCCC1CCSS1 (stereo not drawn) [α-lipoic acid]														completely prevent hypersensitivity	
O=c1[nH]cc(F)c(=O)[nH]1 [5-FU, fluorouracil]	significant LDH increase	neither MTX at 100 μM, 5-FU at 25 μM, nor CDDP at 3.5 μM caused morphological changes, LDH release, or MTS reduction	significant increases in LDH reading	no cell damage was visible	extensive neuronal cell death; also recorded: robust loss of neurons	robustly decreased the cell density	84%	124%	27%	significant reduction in MTS readings	no change in MTS level was detectable	significantly reduced the cell density	57%		
CC(C)c1ccc(NC(=O)Cn2cnc3c2c(=O)n(C)c(=O)n3C)cc1 [HC-030031]														completely prevent hypersensitivity	
Cc1c(C)c2c(c(C)c1O)CC[C@@](C)(CCC[C@H](C)CCC[C@H](C)CCCC(C)C)O2 [α-tocopherol]															about 50%
